Laboratory results: BindingDB's records for patent US12528814 (Nurix Therapeutics, 2026)

Molecular target: T1, Interleukin-1 receptor-associated kinase 4 (Homo sapiens, UniProt Q9NWZ3)
T1 sequence (Q9NWZ3 whole entry): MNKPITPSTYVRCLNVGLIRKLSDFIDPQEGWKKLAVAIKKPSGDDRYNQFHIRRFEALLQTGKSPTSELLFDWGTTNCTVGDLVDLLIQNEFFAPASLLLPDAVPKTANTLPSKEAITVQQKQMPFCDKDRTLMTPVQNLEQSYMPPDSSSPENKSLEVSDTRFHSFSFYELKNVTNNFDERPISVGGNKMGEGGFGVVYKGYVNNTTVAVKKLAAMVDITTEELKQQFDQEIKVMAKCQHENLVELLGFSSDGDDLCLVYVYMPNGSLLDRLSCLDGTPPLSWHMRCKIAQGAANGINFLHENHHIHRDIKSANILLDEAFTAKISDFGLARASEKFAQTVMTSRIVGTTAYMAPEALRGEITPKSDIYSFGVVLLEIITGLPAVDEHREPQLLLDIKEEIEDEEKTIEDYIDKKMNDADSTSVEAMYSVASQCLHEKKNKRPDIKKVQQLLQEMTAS
Assay: IRAK4 Biochemical HTRF Kinase Assay
Experimental: The binding capacities of certain bifunctional compounds of Formula (I) were determined using the CisBio HTRF KinEASE STK S1 Kit (#62ST1PEB, contains 5× Kinase buffer, 1× Detection Buffer, anti-phospho-serine/threonine-cryptate, Streptavidin-XL665, and STK-S1), which measures the phosphorylation of a biotinylated peptide substrate by IRAK4, according to the manufacturer's protocol. Briefly, test compounds in DMSO were serially diluted into 384 Plus White Proxiplate (PerkinElmer, #6008280) using a Labcyte Echo 550 Liquid Handler, at a concentration of 50× final in 200 nL of 100% DMSO. 7.8 μl of kinase solution, containing 1.28 nM IRAK4 in 1× Kinase Buffer (supplemented with 3 mM MgCl2, 0.01% Triton X-100, and 1 mM DTT) was added to each compound containing well and incubated at ambient temperature for 30 min. 2 μl of a reaction solution containing 5 μM STK-S1, 10 mM ATP, and 10 mM MgCl2 were added to each well to a final volume of 10 μl. Assay controls include wells containing kinase with no compound (DMSO only) and wells containing no kinase and no compound (DMSO only). The reactions were allowed to proceed at ambient temperature for 90 minutes. […] The plates were incubated for 60 minutes at ambient temperature and then read on an Envision Multilabel Reader (PerkinElmer). […]

IC50: 1.6 nM
Structure (SMILES): CNc1cc(-c2ccc3cc(C#N)cnn23)ncc1-c1nnc(C23CCC(NC(=O)C4CCN(c5cccc6c5C(=O)N(C5CCC(=O)NC5=O)C6=O)CC4)(CC2)CC3)s1 (stereo unspecified) [US12528814, Example 136]
